Tests used:
A. niger [1] = test: culture of the fungi A. niger exposed to disk moistened with formulation (glycerol/SDS base); type: cell-based, Aspergillus niger; conditions: under more controlled conditions; 0.5 and 1% formulations
Method: Formulations were further tested against a culture of the fungi A. niger. The fungi was exposed to 1% PCO/1% POH, 1% PCO, and 1% POH formulations. All formulations were prepared in a glycerol/SDS base in water.

A. niger [2] = test: agar diffusion-disk technique, halo formation (fungal strains); type: cell-based, Aspergillus niger; conditions: for re-growth around the formulation: A. niger, 96 hours after inhibition; for activity against A. niger: formulation at 0.5%, after 7 days
Method: This technique is explained in R. K. Dart, Microbiology for the Analytic Chemist, The Royal Society of Chemists, 1996, which is incorporated herein by reference. […] Anti-bacterial activity was detected by showing a distinguished halo around the disk previously wetted with the formulation. Halo formation was measured with a caliper and biological activity was considered according to size. Details of specific applications and formulations are set forth below. […] SDS indicates Sodium Dodecyl Sulfate. […] Details of specific applications and formulations are set forth below.

bacteria, yeast or fungi = test: general statements on activity against bacteria, yeast or fungi; type: cell-based; conditions: enhancer alone

| Structure (SMILES) | inhibition of growth of A. niger (A. niger [1]) | re-growth around the formulation (A. niger [2]) | activity against A. niger (A. niger [2]) | activity against bacterial cells (bacteria, yeast or fungi) | effect against bacteria, yeast or fungi (bacteria, yeast or fungi) |
| --- | --- | --- | --- | --- | --- |
| C=C(C)C1CC=C(C=O)CC1 (stereo not drawn) [PCO, perillyl aldehyde] | did inhibit growth | no growth | very active | – | – |
| C=C(C)[C@@H]1CC=C(CO)CC1 [POH, perillyl alcohol, reference compound] | did not perform as aggressively | re-growth | considerable growth | – | – |
| CCCCCCCCCCCCOS(=O)(=O)[O-].[Na+] [SDS, Sodium Dodecyl Sulfate] | – | – | – | do not provide activity | – |
| CC(O)CO (stereo not drawn) [propylene glycol] | – | – | – | do not provide activity | no effect |
